Patent publication US20250057158A1 (priority 2021, published 2025)
Like-named read-outs stand apart in the source and are kept apart here.

Experiments:
soybeans = test: Growth promoting ability, shoot weight of soybeans; assay type: in vivo, soybean; conditions: untreated group 8.6 g; for shoot weight, soybeans (average): root zone treatment twice at one week intervals (valine 5 ml, 0.1%), two weeks after last treatment
Experimental: (§1) The growth of soybeans and cucumbers was observed by treatment with valine. One week after sowing in pots, root zone treatment of each plant was performed using 5 ml of valine at a concentration of 0.1%. The root zone treatment with valine was performed twice at one week intervals. Two weeks after the last treatment, a shoot of each treatment group was cut and weighed.

[1] = test system: Pathogenesis-related protein (PR) 1a promoter GUS fusion construct; test: Expression of disease resistance marker gene PR1a through GUS activity; assay type: in vivo, Arabidopsis thaliana; conditions: roots treated with 50 μl; observed 1 Dai to 4 Dai after pathogen treatment
[2] = test system: lettuce bacterial soft rot (Pectobacterium carotovorum pv. carotovora); test: Optimal conditions, two treatments: lettuce bacterial soft rot (disease severity, control value); conditions: treatment 7 days and 1 day before pathogen; for control value, lettuce bacterial soft rot: from disease severity, vs untreated group; for disease severity (score 0 to 5), lettuce bacterial soft rot: 48 hours after pathogen, water control group 4.2
Experimental: (§2) A total of 3 crops (soybean, cucumber, lettuce) were tested against 3 pathogens (soybean Phytophthora stem and root rot, cucumber bacterial leaf blight, lettuce bacterial soft rot), and each plant was prepared in the same manner as Example 5.
(§3) From the disease severity investigated in this manner, a control value was calculated according to the following Equation.

[3] = test system: Pseudomonas syringae pv. tomato DC3000 (Pst); assay type: in vivo; conditions: Arabidopsis thaliana; for disease severity (score 0 to 5): water-treated group 4.6; for induced resistance against Pst (disease severity, statistical significance vs water-treated control): 50 μl of 0.1% amino acid to roots, Pst 7 days later, severity 7 days after pathogen
[4] = test system: soybean Phytophthora stem and root rot (Phytophthora sojae); conditions: treatment 7 days and 1 day before pathogen; for control value, soybean Phytophthora stem and root rot: from disease severity, vs untreated group; for disease severity (score 0 to 5), soybean Phytophthora stem and root rot: 7 days after pathogen, water control group 4.1
Experimental: as §2, §3

[5] = test system: Magnaporthe oryzae KI-1113a; assay type: in vivo; conditions: pot; 5 ml spray (amino acid 0.1%) one day before inoculation; diseased area after 24 h dark plus 4 days; vs untreated group
Phytophthora sojae = test: Pot experiment, soybean Phytophthora stem and root rot (diseased area, control value); assay type: in vivo; conditions: diseased area after 3 days, vs untreated group
cucumbers = test: Growth promoting ability, shoot weight of cucumbers; assay type: in vivo, cucumber; conditions: untreated group 31 g; for shoot weight, cucumbers (average): root zone treatment twice at one week intervals (valine 5 ml, 0.1%), two weeks after last treatment
Experimental: as §1

Botrytis cinerea = test: Pot experiment, tomato gray mold (diseased area, control value); assay type: in vivo; conditions: diseased area after 3 days, vs untreated group
[6] = test system: Pseudomonas syringae pv. lachrymans; test: Pot experiment, cucumber bacterial leaf blight (diseased area, control value); assay type: in vivo; conditions: 5 ml spray (amino acid 0.1%) one day before inoculation, diseased area after 3 days, vs untreated group
[7] = test system: Pectobacterium carotovorum pv. carotovora; test: Pot experiment, lettuce bacterial soft rot (diseased area, control value); assay type: in vivo; conditions: diseased area after 1 day, vs untreated group
Pcc pathogen = conditions: Arabidopsis thaliana; 0.1% amino acid; day 3 after Pcc
Pst pathogen = assay type: in vivo, Pseudomonas syringae pv. tomato; conditions: Arabidopsis thaliana; 0.1% amino acid; day 6 after Pst
[8] = test system: Soybean Phytophthora stem and root rot; conditions: 7 days after disease treatment, NDVI 0.7 or more = healthy, untreated group 26%
Experimental: The induced resistance against Soybean Phytophthora stem and root rot was investigated using a hyperspectral camera and a visible light band camera. Plant preparation was carried out in the same manner as in Example 6, and 7 days after disease treatment, leaves were picked from the same position in each treatment group, and hyperspectral photographs were taken.
It was quantified by the normalized difference vegetation index (NDVI). The degree of diseased leaves in the entire leaf area was indicated from 0.1 to 0.9 and the number of the corresponding pixels was used. Generally, when the number is 0.7 or more, it is considered a healthy leaf.

[9] = valine 5 ml, 0.1%, root zone, twice

**Q.** `CSC(=O)c1cccc2nnsc12` [BTH, benzo(1,2,3)-thiadiazole-7-carbothioic acid S-methyl ester, reference compound] was tested. Which “shoot weight, soybeans (average)” value (soybeans) did it give?
**A.** 7.3 g

**Q.** And the “PR1a expression (GUS activity in leaf area)” value [1]?
**A.** GUS was expressed in the leaf area

**Q.** And the “control value, lettuce bacterial soft rot” value [2]?
**A.** 17%

**Q.** What about the “disease severity (score 0 to 5)” value ([3]; Pst, 1 mM BTH) of the same compound?
**A.** 3.7

**Q.** What about the “control value, soybean Phytophthora stem and root rot” value [4] of the same compound?
**A.** 46%

**Q.** What about the “control value, rice blast” value [5] of the same compound?
**A.** 9%

**Q.** And the “control value, soybean Phytophthora stem and root rot” value (Phytophthora sojae)?
**A.** 10%

**Q.** And the “shoot weight, cucumbers (average)” value (cucumbers)?
**A.** 26 g

**Q.** And the “control value, tomato gray mold” value (Botrytis cinerea)?
**A.** 20%

**Q.** And the “control value, cucumber bacterial leaf blight” value [6]?
**A.** 9%

**Q.** What about the “control value, lettuce bacterial soft rot” value [7] of the same compound?
**A.** 10%

**Q.** `N[C@@H](Cc1c[nH]cn1)C(=O)O` [histidine] was tested. Which “induced resistance against Pst (disease severity, statistical significance vs water-treated control)” value [3] did it give?
**A.** induced the resistance against Pst

**Q.** Which results are given for `CC[C@H](C)[C@H](N)C(=O)O` [isoleucine]?
**A.** number of Pcc pathogen vs untreated control group (Pcc pathogen): reduction in the number of Pcc pathogen; number of Pcc pathogens vs BTH-treated group (Pcc pathogen): reduction in the number of pathogens, as compared to the BTH-treated group; PR1a expression (GUS activity in leaf area) [1]: GUS was expressed in the leaf area; number of Pst pathogens vs untreated control group (Pst pathogen): statistically significant reduction in the number of pathogens; disease severity (score 0 to 5), lettuce bacterial soft rot [2]: 3; control value, lettuce bacterial soft rot [2]: 29%; induced resistance against Pst (disease severity, statistical significance vs water-treated control) [3]: induced the resistance against Pst; disease severity (score 0 to 5), soybean Phytophthora stem and root rot [4]: 2.3; control value, soybean Phytophthora stem and root rot [4]: 44%; control value, rice blast [5]: 16%; control value, soybean Phytophthora stem and root rot (Phytophthora sojae): 10%; healthy leaves (NDVI, hyperspectral camera) [8]: 46%; control value, cucumber bacterial leaf blight [6]: 12%; control value, lettuce bacterial soft rot [7]: 8%

**Q.** `CC(C)C[C@H](N)C(=O)O` [leucine] was tested. Which “induced resistance against Pst (disease severity, statistical significance vs water-treated control)” value [3] did it give?
**A.** induced the resistance against Pst

**Q.** Which results are given for `CC(C)[C@H](N)C(=O)O` [valine]?
**A.** shoot weight, soybeans (average) (soybeans): 11 g; shoot weight heavier than untreated group, soybeans (soybeans; [9]): 2.4 g; number of Pcc pathogen vs untreated control group (Pcc pathogen): reduction in the number of Pcc pathogen; number of Pcc pathogens vs BTH-treated group (Pcc pathogen): reduction in the number of pathogens, as compared to the BTH-treated group; PR1a expression (GUS activity in leaf area) [1]: GUS was expressed in the leaf area; number of Pst pathogens vs untreated control group (Pst pathogen): statistically significant reduction in the number of pathogens; disease severity (score 0 to 5), lettuce bacterial soft rot [2]: 2.2; control value, lettuce bacterial soft rot [2]: 48%; disease severity (score 0 to 5) ([3]; Pst, 0.1% (0.95 mM) valine): 2.5; disease severity (score 0 to 5) ([3]; Pst, 0.5% valine): 2.4; overall disease severity in valine-treated groups ([3]; Pst, valine 0.5%, 0.1%, 0.05%, 0.01%, 0.005% and 0.001%, vs water-treated group): overall disease severity decreased; induced resistance against Pst (disease severity, statistical significance vs water-treated control) [3]: induced the resistance against Pst; disease severity (score 0 to 5), soybean Phytophthora stem and root rot [4]: 1.1; control value, soybean Phytophthora stem and root rot [4]: 73%; control value, rice blast [5]: 13%; control value, soybean Phytophthora stem and root rot (Phytophthora sojae): 15%; shoot weight, cucumbers (average) (cucumbers): 34 g; shoot weight heavier than untreated group, cucumbers (cucumbers; [9]): 3 g; healthy leaves (NDVI, hyperspectral camera) [8]: 60%; control value, cucumber bacterial leaf blight [6]: 17%; control value, lettuce bacterial soft rot [7]: 13%

**Q.** `N[C@@H](CCC(=O)O)C(=O)O` [glutamic acid] was tested. Which “induced resistance against Pst (disease severity, statistical significance vs water-treated control)” value [3] did it give?
**A.** induced the resistance against Pst

**Q.** `N[C@@H](CC(=O)O)C(=O)O` [aspartic acid] was tested. Which “induced resistance against Pst (disease severity, statistical significance vs water-treated control)” value [3] did it give?
**A.** induced the resistance against Pst

**Q.** How did the “number of Pcc pathogen vs untreated control group” value (Pcc pathogen) turn out when `O=C(O)[C@@H]1CCCN1` [proline] was run?
**A.** reduction in the number of Pcc pathogen

**Q.** What about the “number of Pcc pathogens vs BTH-treated group” value (Pcc pathogen) of the same compound?
**A.** reduction in the number of pathogens, as compared to the BTH-treated group

**Q.** What about the “PR1a expression (GUS activity in leaf area)” value [1] of the same compound?
**A.** GUS was expressed in the leaf area

**Q.** What about the “number of Pst pathogens vs untreated control group” value (Pst pathogen) of the same compound?
**A.** statistically significant reduction in the number of pathogens

**Q.** And the “induced resistance against Pst (disease severity, statistical significance vs water-treated control)” value [3]?
**A.** induced the resistance against Pst
